Results as given in ChEMBL document CHEMBL1240397, “Amodiaquine dosage and tolerability for intermittent preventive treatment to prevent malaria in children” (Antimicrob Agents Chemother, 2010).

Legend:
Format in all cases: organism-based
Conditions in all cases: in vivo, po
[1] = test system: Homo sapiens; assay: Toxicity in children with malaria assessed as febrile incidence at >19 mg/kg/day, perorally and co-treated with sulfadoxine and pyrimethamine during intermittent preventive treatment to prevent malaria in children regimen
[2] = test system: Homo sapiens; assay: Toxicity in children with malaria under 2 years of age assessed as incidence of headache administered with 250 mg sulfalene/12.5 mg pyrimethamine on first day followed by compound treatment at <=15 mg/kg/day, perorally
[3] = test system: Homo sapiens; assay: Toxicity in children with malaria over 2 years of age assessed as incidence of fever at >=15 mg/kg/day, perorally co-treated with 500 mg sulfalene/25 mg pyrimethamine
[4] = test system: Homo sapiens; assay: Toxicity in children with malaria assessed as incidence of vomiting at 15-17 mg/kg/day, perorally and cotreated with Sulfadoxine and pyrimethamine during intermittent preventive treatment to prevent malaria in children regimen
[5] = test system: Homo sapiens; assay: Toxicity in children with malaria assessed as incidence of rashes at 15-17 mg/kg/day, perorally and co-treated with sulfadoxine and pyrimethamine during intermittent preventive treatment to prevent malaria in children regimen
[6] = test system: Homo sapiens; assay: Toxicity in children with malaria over 2 years of age assessed as incidence of headache at >=15 mg/kg/day, perorally co-treated with 500 mg sulfalene/25 mg pyrimethamine
[7] = test system: Homo sapiens; assay: Toxicity in children with malaria under 2 years of age assessed as incidence of fever administered with 250 mg sulfalene/12.5 mg pyrimethamine on first day followed by compound treatment at <=15 mg/kg/day, perorally
[8] = test system: Homo sapiens; assay: Toxicity in children with malaria under 2 years of age assessed as incidence of vomiting administered with 250 mg sulfalene/12.5 mg pyrimethamine on first day followed by compound treatment at <=15 mg/kg/day, perorally
[9] = test system: Homo sapiens; assay: Toxicity in children with malaria assessed as incidence of rashes at <15 mg/kg/day, perorally and co-treated with sulfadoxine and pyrimethamine during intermittent preventive treatment to prevent malaria in children regimen
[10] = test system: Homo sapiens; assay: Toxicity in children with malaria assessed as febrile incidence at 15-17 mg/kg/day, perorally and co-treated with sulfadoxine and pyrimethamine during intermittent preventive treatment to prevent malaria in children regimen
[11] = test system: Homo sapiens; assay: Toxicity in children with malaria assessed as incidence of vomiting at <15 mg/kg/day, perorally and co-treated with sulfadoxine and pyrimethamine during intermittent preventive treatment to prevent malaria in children regimen
[12] = test system: Homo sapiens; assay: Toxicity in children with malaria over 2 years of age assessed as incidence of vomiting at >=15 mg/kg/day, perorally co-treated with 500 mg sulfalene/25 mg pyrimethamine
[13] = test system: Homo sapiens; assay: Toxicity in children with malaria assessed as febrile incidence at <15 mg/kg/day, perorally and co-treated with sulfadoxine and pyrimethamine during intermittent preventive treatment to prevent malaria in children regimen
[14] = test system: Homo sapiens; assay: Toxicity in children with malaria assessed as incidence of rashes at >19 mg/kg/day, perorally and co-treated with sulfadoxine and pyrimethamine during intermittent preventive treatment to prevent malaria in children regimen
[15] = test system: Homo sapiens; assay: Toxicity in children with malaria assessed as incidence of rashes at 17-19 mg/kg/day, perorally and cotreated with Sulfadoxine and pyrimethamine during intermittent preventive treatment to prevent malaria in children regimen
[16] = test system: Homo sapiens; assay: Toxicity in children with malaria assessed as febrile incidence at 17-19 mg/kg/day, perorally and cotreated with Sulfadoxine and pyrimethamine during intermittent preventive treatment to prevent malaria in children regimen
[17] = test system: Homo sapiens; assay: Toxicity in children with malaria over 2 years of age assessed as incidence of itching at >=15 mg/kg/day, perorally co-treated with 500 mg sulfalene/25 mg pyrimethamine
[18] = test system: Homo sapiens; assay: Toxicity in children with malaria over 2 years of age assessed as incidence of rashes at >=15 mg/kg/day, perorally co-treated with 500 mg sulfalene/25 mg pyrimethamine
[19] = test system: Homo sapiens; assay: Toxicity in children with malaria under 2 years of age assessed as incidence of rashes administered with 250 mg sulfalene/12.5 mg pyrimethamine on first day followed by compound treatment at <=15 mg/kg/day, perorally
[20] = test system: Homo sapiens; assay: Toxicity in children with malaria under 2 years of age assessed as incidence of itching administered with 250 mg sulfalene/12.5 mg pyrimethamine on first day followed by compound treatment at <=15 mg/kg/day, perorally

CCN(CC)Cc1cc(Nc2ccnc3cc(Cl)ccc23)ccc1O.Cl
Activity [1]: 21.7% | Activity [2]: 9.6% | Activity [3]: 29.8% | Activity [4]: 9.2% | Activity [5]: 0% | Activity [6]: 5.8% | Activity [7]: 26.4% | Activity [8]: 26.4% | Activity [9]: 0.8% | Activity [10]: 10.7% | Activity [11]: 7% | Activity [12]: 41.3% | Activity [13]: 6.3% | Activity [14]: 2.2% | Activity [15]: 0.8% | Activity [16]: 9.9% | Activity [17]: 3.8% | Activity [18]: 1.9% | Activity [19]: 1.9% | Activity [20]: 1.9%
